Results as given in patent US20240366648A1, “NAD-AUGMENTATION THERAPY FOR PARKINSON'S DISEASE” (Vestlandets Innovasjonsselskap AS (VIS), priority 2021, published 2024).

System: patients with PD
Experiment: Safety, adverse events and compliance, phase I trial
Type: in vivo
Method: Thirty PD patients were randomly assigned (Block size 6, allocation 1:1) to 500 mg NR, provided in the form of nicotinamide riboside chloride (Niagen® from Chromadex), or placebo twice per day, 12 hours apart, using the electronic Case Report Form (Viedoc.com). The drug containers were sequentially marked by an independent third party. The NR (Niagen®) and placebo were provided by ChromaDex, USA. Each NR capsule contained 250 mg of NR. Placebo capsules contained microcrystalline cellulose. The vials and capsules containing NR and placebo were identical in shape, colour, and smell. Study drug compliance was calculated from counting returned number of study capsules and self-reporting. Participants, examining physicians, medical- and research personnel were blinded for the duration of the trial. Sample size was determined by comparing previous literature with respect to the primary objective.
At screening for trial entry, candidates underwent physical and neurological examination, brain MRI, and DaTscan. Eligible patients who entered the trial were assessed at baseline (visit 1, V1) and after four weeks of exposure to either NR or placebo (visit 2, V2). At both visits, patients underwent physical and neurological examination, including assessment by the Movement Disorder Society Unified Parkinson's Disease Rating Scale section I-IV (MDS-UPDRS), and biological sampling. MR-PET was performed within one week prior to visit 1, and at visit 2. All participants remained naïve for antiparkinson drugs for the duration of the trial. All clinical assessments were performed by a blinded movement disorders expert. Each patient was examined by the same neurologist at both visits. Methodological details on each procedure are provided below. Safety was monitored through routine clinical blood tests and registration of adverse events. Adverse events (AE) were recorded and scored by the investigative physician. Severity was scored according to severity grading defined by Common Terminology Criteria for Adverse Events v5.0 (CTCAE) as (1) mild, (2) moderate, (3) severe, (4) life-threatening or (5) death. The AE relation to the study drug was scored as (1) unrelated, (2) unlikely, (3) possible, (4) probable or (5) definitely.

In the case of `NC(=O)c1ccc[n+]([C@@H]2O[C@H](CO)[C@@H](O)[C@H]2O)c1` [NR, nicotinamide riboside], the “CTCAE Grading: Upper Respiratory infection” value (1 event, NR group) is reported as “Grade 1 (1)”, the “Adverse events (n): Anorexia” value (human, in vivo, 4 weeks) is reported as 1 and the “Adverse events (n): Cholelithiasis” value (human, in vivo, 4 weeks) is reported as 1. The “Adverse events (n): Fatigue” value (human, in vivo, 4 weeks) was 1, the “Adverse events (n): Headache” value (human, in vivo, 4 weeks) was 3 and the “Adverse events (n): Hematoma (leg)” value (human, in vivo, 4 weeks) was 2. The “Adverse events (n): Inguinal hernia” value (human, in vivo, 4 weeks) was 1, the “Adverse events (n): Leg Pain” value (human, in vivo, 4 weeks) was 1 and the “Adverse events (n): Nausea” value (human, in vivo, 4 weeks) was 1. The “Adverse events (n): Upper Respiratory infection” value (human, in vivo, 4 weeks) was 1, the “CTCAE Grading: Anorexia” value (human, in vivo, 4 weeks) was “Grade 1 (1)” and the “CTCAE Grading: Cholelithiasis” value (human, in vivo, 4 weeks) was “Grade 1 (1)”. For the same compound, the “CTCAE Grading: Fatigue” value (human, in vivo, 4 weeks) was “Grade 1 (1)”, the “CTCAE Grading: Headache” value (human, in vivo, 4 weeks) was “Grade 1 (4)” and the “CTCAE Grading: Inguinal hernia” value (human, in vivo, 4 weeks) was “Grade 1 (1)”. The “CTCAE Grading: Leg Pain” value (human, in vivo, 4 weeks) was “Grade 1 (1)”, the “CTCAE Grading: Nausea” value (human, in vivo, 4 weeks) was “Grade 1 (1)” and the “Causal Relationship to Study Drug: Anorexia” value (human, in vivo, 4 weeks) was “Unlikely (1)”. For the same compound, the “Causal Relationship to Study Drug: Cholelithiasis” value (human, in vivo, 4 weeks) was “Unrelated (1)”, the “Causal Relationship to Study Drug: Fatigue” value (human, in vivo, 4 weeks) was “Unlikely (1)” and the “Causal Relationship to Study Drug: Hematoma (leg)” value (human, in vivo, 4 weeks) was “Unrelated (2)”. For the same compound, the “Causal Relationship to Study Drug: Inguinal hernia” value (human, in vivo, 4 weeks) was “Unrelated (1)”, the “Causal Relationship to Study Drug: Leg Pain” value (human, in vivo, 4 weeks) was “Unrelated (1)” and the “Causal Relationship to Study Drug: Nausea” value (human, in vivo, 4 weeks) was “Unlikely (1)”. For the same compound, the “Causal Relationship to Study Drug: Upper Respiratory infection” value (human, in vivo, 4 weeks) was “Unlikely (1)”, the “severity and relatedness of reported adverse events” value (in vivo) was “minor and considered to be unrelated to NR” and the “subjects reporting adverse events” value (in vivo) was “Seven”.
